Experimental data from patent US9200082B2, “Methods and compositions involving fibrillizing polypeptides for nanofibers” (The University of Chicago, priority 2013, dated 2015).

Columns and labels:
Q11 microgels = test: Q11 microgel fluorescence microscopy
Method: Lyophilized Q11 was dissolved in deionized water at a final concentration of 10 mM by vortexing for 5 min. Aqueous Q11 solutions were diluted 10-fold with 1×PBS containing GFP (Vector Labs cat# MB-0752), βTmutant-GFP, or one or more βTail fusion proteins at a total protein concentration between 0.25-1.5 μM, or tryptophan-terminated βTail (W-βTail) at a concentration between 10-100 μM. These solutions were then incubated under static conditions for nanofiber assembly, or on a LabNet Rocker 35 rocker table (speed setting 4) (New Jersey) to induce microgel formation.
Q11 microgel fluorescence was analyzed using a Zeiss Axioscope inverted epifluorescent microscope. Dapi filters were used to visualize βTail-GFPuv; FITC filters were used to visualize βTail-eGFP; and TRITC filters were used to visualize βTail-dsRED. Fluorescence emission of any protein with the inappropriate filter (e.g. βTail-GFPuv with FITC) was negligible (FIG. 5). Due to differences in the quantum efficiency of each protein, exposure time was adjusted until the grayscale image intensity of microgels containing 0.33 μM βTail-GFP, βTail-eGFP, or βTail-dsRED alone was similar (e.g. 0.75 sec for βTail-GFP, 1.5 sec for βTail-eGFP, and 2.5 sec for βTail-dsRED). […]

C57BL/6 mice = test: Immunization, anti-GFP Ig isotyping ELISA; format: in vivo; details: after primary and booster immunizations, serum week 7
Method: Q11 microgels bearing βTail-GFP or βTail-cut were prepared as described above, except the materials were incubated at 4 deg C., rather than room temperature. GFP content in the microgels was analyzed fluorimetrically as described above, and the concentration of GFP in the microgels was used as the basis for βTail-GFP dose in the PBS group. Similarly, cutinase content in the microgels was analyzed with the μABCA assay kit (Pierce), according to the manufacturer's instructions, and βTail-cut dose in the microgels was used as the basis for βTail-cut dose in PBS group. Endotoxin content of all vaccines was analyzed with the Limulus Amoebocyte Lysate assay kit (Lonza) according to the manufacturer's instructions immediately before immunization, and all materials were below the upper limit of 1 EU/mL. Female C57BL/6 mice (6-8 weeks old, Taconic Farms, Ind.) were each given two 50 μL subcutaneous injections near the shoulder blades for each primary and booster immunization, similar to previously reported methods (Hudalla 2013). […]
For all isotyping ELISAs, following overnight coating with 1 μg/mL βTmutant-GFP in PBS or PBS, all plates were washed 3 times with 0.5% Tween-20 in PBS. […] Absorbance was then measured at 450 nm with a SpectraMax M5 plate reader.

βTail-GFP: recombinant fusion of βTail, Gly-Ser linker, GFPuv and His6 expressed in E. coli; SEQ ID NO. 65
fluorescence (activity) after integration into Q11 nanofibers (Q11 microgels): fluorescence was not perturbed when integrated into Q11 nanofibers | serum Ig isotype profile (C57BL/6 mice): a more balanced IgM/IgG1 isotype profile
